≈ marks a conversion by molar mass, not a printed value.
Legend:
[1] = Kinetic solubility of the compound; type: physicochemical; settings: read-out: Kinetic_solubility
[2] = fAUC (infinity) in rat at 1 mg/kg, iv or 5 mg/kg, po; type: ADME, organism-based; settings: in vivo
[3] = Protein binding in mouse plasma assessed as unbound fraction; type: ADME, cell-free
[4] = target: Isocitrate dehydrogenase [NADP] cytoplasmic (Homo sapiens, UniProt O75874, R132G); assay: Inhibition of human Myc-DDK-tagged IDH1 R132G mutant expressed in human U87MG cells assessed as reduction in 2-HG levels after 24 hrs by RapidFire high-throughput mass spectrometry assay; type: cell-based
Isocitrate dehydrogenase [NADP] cytoplasmic (Homo sapiens, UniProt O75874, R132G), sequence (O75874 2-414 R132G limits assumed): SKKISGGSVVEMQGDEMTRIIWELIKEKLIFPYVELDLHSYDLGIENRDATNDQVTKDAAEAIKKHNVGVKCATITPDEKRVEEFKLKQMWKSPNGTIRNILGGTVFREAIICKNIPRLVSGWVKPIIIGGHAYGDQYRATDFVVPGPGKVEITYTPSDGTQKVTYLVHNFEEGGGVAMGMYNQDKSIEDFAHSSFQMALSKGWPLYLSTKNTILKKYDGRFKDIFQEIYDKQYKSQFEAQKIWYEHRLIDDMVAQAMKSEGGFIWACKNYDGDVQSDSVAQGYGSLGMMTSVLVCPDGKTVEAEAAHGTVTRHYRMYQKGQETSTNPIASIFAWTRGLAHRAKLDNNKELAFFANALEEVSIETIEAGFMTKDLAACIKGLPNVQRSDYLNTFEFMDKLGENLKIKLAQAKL

[5] = target: NET (noradrenaline transporter) (Homo sapiens, UniProt P23975); assay: Displacement of [3H]nisoxetine from recombinant human NET receptor at 10 uM after 120 mins by scintillation counting method relative to control; settings: probe [3H]nisoxetine
NET (noradrenaline transporter), sequence (P23975 whole entry): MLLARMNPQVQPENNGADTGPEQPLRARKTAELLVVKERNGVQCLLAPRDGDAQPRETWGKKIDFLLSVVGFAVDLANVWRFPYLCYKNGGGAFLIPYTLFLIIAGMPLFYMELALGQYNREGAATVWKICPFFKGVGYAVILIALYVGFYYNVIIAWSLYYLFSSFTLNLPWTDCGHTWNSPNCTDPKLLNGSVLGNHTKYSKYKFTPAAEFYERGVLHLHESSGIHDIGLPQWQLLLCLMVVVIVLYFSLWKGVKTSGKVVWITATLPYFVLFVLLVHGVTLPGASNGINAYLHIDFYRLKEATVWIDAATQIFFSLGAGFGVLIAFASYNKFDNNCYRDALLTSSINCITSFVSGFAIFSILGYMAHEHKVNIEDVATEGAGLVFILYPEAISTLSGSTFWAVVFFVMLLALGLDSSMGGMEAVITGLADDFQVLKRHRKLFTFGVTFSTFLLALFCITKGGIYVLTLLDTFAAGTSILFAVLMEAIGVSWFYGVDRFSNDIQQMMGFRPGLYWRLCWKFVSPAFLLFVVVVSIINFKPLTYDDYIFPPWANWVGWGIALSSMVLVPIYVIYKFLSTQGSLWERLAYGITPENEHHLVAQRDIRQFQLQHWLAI

Mus musculus = type: functional; settings: BALB/c, HCT-116, po
[6] = target: T1, Isocitrate dehydrogenase [NADP] cytoplasmic (Homo sapiens, UniProt O75874, R132C); assay: Inhibition of IDH1 R132C mutant in human HCT116 cells assessed as reduction in 2-HG levels after 24 hrs by RapidFire high-throughput mass spectrometry assay; type: cell-based
T1 sequence (O75874 2-414 R132C limits assumed): as the sequence (O75874 2-414 R132G limits assumed) above, with G131C counted along it

[7] = Permeability of the compound by PAMPA; type: ADME; settings: read-out: permeability
Cytochrome P450 3A4 [8] = target: T2, Cytochrome P450 3A4 (Homo sapiens, UniProt P08684); assay: Time dependent inhibition of CYP3A4 (unknown origin) at <5 uM using testosterone as substrate; type: ADME
T2 sequence (P08684 whole entry): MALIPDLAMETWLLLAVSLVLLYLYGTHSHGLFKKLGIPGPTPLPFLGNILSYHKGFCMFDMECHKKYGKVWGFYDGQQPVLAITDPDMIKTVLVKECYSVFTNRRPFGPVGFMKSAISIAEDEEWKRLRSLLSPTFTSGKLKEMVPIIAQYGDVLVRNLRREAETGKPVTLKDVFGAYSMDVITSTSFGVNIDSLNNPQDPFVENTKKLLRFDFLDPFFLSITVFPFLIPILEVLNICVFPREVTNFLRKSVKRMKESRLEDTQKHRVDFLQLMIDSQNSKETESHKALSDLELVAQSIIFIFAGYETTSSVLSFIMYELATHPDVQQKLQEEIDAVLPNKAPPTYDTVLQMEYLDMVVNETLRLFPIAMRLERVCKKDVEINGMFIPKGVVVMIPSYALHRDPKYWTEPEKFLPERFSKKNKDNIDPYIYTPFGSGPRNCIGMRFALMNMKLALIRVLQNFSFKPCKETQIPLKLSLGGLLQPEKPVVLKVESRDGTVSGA

[9] = Half-life in dog at 0.5 mg/kg, iv; type: ADME, organism-based, Canis lupus familiaris; settings: in vivo
[10] = Intrinsic clearance in human hepatocytes; type: ADME, cell-based, Hepatocyte; settings: read-out: CLH
[11] = Protein binding in dog plasma; type: ADME, cell-free, Canis lupus familiaris; settings: read-out: PPB (converted)
[12] = target: T1, Isocitrate dehydrogenase [NADP] cytoplasmic; assay: Inhibition of human Myc-DDK-tagged IDH1 R132C mutant expressed in human U87MG cells assessed as reduction in 2-HG levels after 24 hrs by RapidFire high-throughput mass spectrometry assay; type: cell-based
[13] = Total Cmax in mouse at 1 mg/kg, iv or 5 mg/kg, po; type: ADME, organism-based; settings: in vivo
[14] = Protein binding in human plasma; type: ADME, cell-free; settings: read-out: PPB (converted)
[15] = Half-life in human hepatocytes; type: ADME, cell-based, Hepatocyte
[16] = fAUC (infinity) in dog at 0.5 mg/kg, iv; type: ADME, organism-based, Canis lupus familiaris; settings: in vivo
[17] = Total AUC (infinity) in rat at 1 mg/kg, iv or 5 mg/kg, po; type: ADME, organism-based; settings: in vivo
[18] = target: Isocitrate dehydrogenase [NADP] cytoplasmic (Homo sapiens, UniProt O75874, R132S); assay: Inhibition of human Myc-DDK-tagged IDH1 R132S mutant expressed in human U87MG cells assessed as reduction in 2-HG levels after 24 hrs by RapidFire high-throughput mass spectrometry assay; type: cell-based
Isocitrate dehydrogenase [NADP] cytoplasmic (Homo sapiens, UniProt O75874, R132S), sequence (O75874 2-414 R132S limits assumed): as the sequence (O75874 2-414 R132G limits assumed) above, with G131S counted along it

Cytochrome P450 3A4 [19] = target: T2, Cytochrome P450 3A4; assay: Time dependent inhibition of CYP3A4 (unknown origin) at <5 uM using midazolam as substrate; type: ADME
[20] = target: Isocitrate dehydrogenase [NADP] cytoplasmic (Homo sapiens, UniProt O75874, R132L); assay: Inhibition of human Myc-DDK-tagged IDH1 R132L mutant expressed in human U87MG cells assessed as reduction in 2-HG levels after 24 hrs by RapidFire high-throughput mass spectrometry assay; type: cell-based
Isocitrate dehydrogenase [NADP] cytoplasmic (Homo sapiens, UniProt O75874, R132L), sequence (O75874 2-414 R132L limits assumed): as the sequence (O75874 2-414 R132G limits assumed) above, with G131L counted along it

[21] = Cmax in rat at 1 mg/kg, iv or 5 mg/kg, po; type: ADME, organism-based; settings: in vivo
CYP1A2 = CYP1A2 (Homo sapiens, UniProt P05177); assay: Inhibition of CYP1A2 (unknown origin) at 10 uM relative to control; type: ADME
CYP1A2, sequence (P05177 whole entry): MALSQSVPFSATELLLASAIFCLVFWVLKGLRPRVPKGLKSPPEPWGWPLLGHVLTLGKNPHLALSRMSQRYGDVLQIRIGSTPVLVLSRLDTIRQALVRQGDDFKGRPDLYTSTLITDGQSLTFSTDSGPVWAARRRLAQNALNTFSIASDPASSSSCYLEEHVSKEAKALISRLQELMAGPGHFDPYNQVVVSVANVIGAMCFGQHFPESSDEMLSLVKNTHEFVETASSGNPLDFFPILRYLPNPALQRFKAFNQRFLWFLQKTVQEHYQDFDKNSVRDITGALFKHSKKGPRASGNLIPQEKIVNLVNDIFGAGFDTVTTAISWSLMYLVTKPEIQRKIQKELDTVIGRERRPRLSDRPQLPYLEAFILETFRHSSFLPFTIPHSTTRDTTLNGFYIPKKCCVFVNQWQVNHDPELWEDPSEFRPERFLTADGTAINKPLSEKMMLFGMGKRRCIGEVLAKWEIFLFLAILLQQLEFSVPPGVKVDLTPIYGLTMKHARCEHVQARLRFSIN

[22] = Efflux ratio of apparent permeability from basolateral side to apical side over apical side to basolateral side in MDCK cells; type: ADME, cell-based, Canis lupus familiaris; settings: dog
[23] = target: Isocitrate dehydrogenase [NADP], mitochondrial (Homo sapiens, UniProt P48735, R140Q); assay: Inhibition of IDH2 R140Q mutant (unknown origin)
[24] = Protein binding in mouse plasma; type: ADME, cell-free; settings: read-out: PPB (converted)
[25] = Free drug concentration in plasma of po dosed BALB/c nude mouse xenografted with human HCT116 harboring R132C mutant administered at 12 hrs intervals and measured after 4 to 24 hrs post last dose; type: ADME, organism-based; settings: in vivo
[26] = Apparent permeability of the compound across apical side to basolateral side in human Caco2 cells; type: ADME, cell-based; settings: Caco-2
[27] = target: ATP-dependent translocase ABCB1 (Homo sapiens, UniProt P08183); assay: Substrate activity at Pgp (unknown origin) assessed as net efflux ratio by measuring ratio of efflux ratio in MDCK cells harboring MDR1 (unknown origin) to efflux ratio in MDCK cells; type: ADME, cell-based
ATP-dependent translocase ABCB1, sequence (P08183 whole entry): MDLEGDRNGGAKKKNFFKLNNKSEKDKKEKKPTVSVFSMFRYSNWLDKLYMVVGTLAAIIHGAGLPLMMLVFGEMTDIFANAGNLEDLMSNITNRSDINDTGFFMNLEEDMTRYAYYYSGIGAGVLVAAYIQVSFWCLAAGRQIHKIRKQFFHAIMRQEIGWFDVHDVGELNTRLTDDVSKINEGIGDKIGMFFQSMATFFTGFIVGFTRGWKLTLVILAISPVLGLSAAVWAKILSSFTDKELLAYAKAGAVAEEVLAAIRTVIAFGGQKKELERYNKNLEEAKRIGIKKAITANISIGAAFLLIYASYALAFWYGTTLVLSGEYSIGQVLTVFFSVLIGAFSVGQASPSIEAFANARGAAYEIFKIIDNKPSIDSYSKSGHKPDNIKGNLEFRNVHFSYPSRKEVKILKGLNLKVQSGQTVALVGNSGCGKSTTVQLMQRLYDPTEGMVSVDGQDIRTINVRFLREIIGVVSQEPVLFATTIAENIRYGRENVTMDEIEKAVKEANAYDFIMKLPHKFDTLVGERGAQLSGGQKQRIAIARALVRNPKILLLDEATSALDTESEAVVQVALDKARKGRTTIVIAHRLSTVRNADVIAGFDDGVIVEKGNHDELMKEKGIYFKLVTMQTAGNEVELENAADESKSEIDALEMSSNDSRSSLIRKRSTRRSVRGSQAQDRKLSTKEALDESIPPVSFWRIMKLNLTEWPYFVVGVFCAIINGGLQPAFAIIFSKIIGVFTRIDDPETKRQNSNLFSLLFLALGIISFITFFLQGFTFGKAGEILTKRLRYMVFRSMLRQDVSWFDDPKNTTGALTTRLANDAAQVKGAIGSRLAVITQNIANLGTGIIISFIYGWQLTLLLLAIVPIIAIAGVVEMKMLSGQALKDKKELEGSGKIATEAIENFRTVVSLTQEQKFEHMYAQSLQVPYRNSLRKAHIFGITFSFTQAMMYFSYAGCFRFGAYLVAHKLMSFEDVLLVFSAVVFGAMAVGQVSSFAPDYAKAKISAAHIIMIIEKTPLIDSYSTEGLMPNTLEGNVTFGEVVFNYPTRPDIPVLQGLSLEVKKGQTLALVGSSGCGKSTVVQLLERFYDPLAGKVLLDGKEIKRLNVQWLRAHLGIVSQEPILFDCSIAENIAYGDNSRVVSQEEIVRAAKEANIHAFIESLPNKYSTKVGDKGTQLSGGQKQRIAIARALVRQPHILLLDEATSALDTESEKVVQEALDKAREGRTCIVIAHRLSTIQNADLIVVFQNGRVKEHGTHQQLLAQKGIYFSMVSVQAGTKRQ

[28] = Metabolic stability in human liver microsomes assessed as compound remaining after 30 mins; type: ADME, Microsome; settings: read-out: Stability
[29] = Half-life in mouse at 1 mg/kg, iv or 5 mg/kg, po; type: ADME, organism-based; settings: in vivo
[30] = Clearance in rat at 1 mg/kg, iv or 5 mg/kg, po; type: ADME, organism-based; settings: in vivo
[31] = Clearance in mouse at 1 mg/kg, iv or 5 mg/kg, po; type: ADME, organism-based; settings: in vivo
MDR1 (P-gp) = assay: Apparent permeability from apical side to basolateral side in MDCK cells harboring MDR1 (unknown origin); type: ADME, cell-based, Canis lupus familiaris; settings: dog
[32] = fAUC (infinity) in mouse at 1 mg/kg, iv or 5 mg/kg, po; type: ADME, organism-based; settings: in vivo
[33] = Metabolic stability in mouse liver microsomes assessed as compound remaining after 30 mins; type: ADME, Microsome; settings: read-out: Stability
[34] = target: alpha1 adrenergic receptor (Homo sapiens, UniProt P35348); assay: Displacement of [3H] prazosin from human alpha1 adrenergic receptor at 1 uM measured after 60 mins by scintillation counting method relative to control; settings: probe [3H] prazosin
alpha1 adrenergic receptor, sequence (P35348 whole entry): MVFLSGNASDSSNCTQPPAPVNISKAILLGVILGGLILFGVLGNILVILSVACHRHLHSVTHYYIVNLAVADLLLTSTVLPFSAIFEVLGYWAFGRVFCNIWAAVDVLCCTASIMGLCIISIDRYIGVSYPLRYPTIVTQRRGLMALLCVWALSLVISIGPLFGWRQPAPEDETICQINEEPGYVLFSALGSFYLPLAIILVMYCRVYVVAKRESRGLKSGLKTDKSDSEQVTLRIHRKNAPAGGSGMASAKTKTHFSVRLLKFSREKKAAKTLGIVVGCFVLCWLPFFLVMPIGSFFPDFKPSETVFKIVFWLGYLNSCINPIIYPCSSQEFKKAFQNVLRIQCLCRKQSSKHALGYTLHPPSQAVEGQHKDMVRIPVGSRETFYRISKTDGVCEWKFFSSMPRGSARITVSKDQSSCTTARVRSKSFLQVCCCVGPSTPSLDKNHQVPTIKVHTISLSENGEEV

[35] = target: T1, Isocitrate dehydrogenase [NADP] cytoplasmic; assay: Inhibition of human Myc-DDK-tagged IDH1 R132C mutant assessed as reduction in NADPH consumption pre-incubated for 15 mins followed by alpha-ketoglutarate substrate and NADPH addition after 45 mins by diaphorase and resazurin dye based assay
[36] = Protein binding in rat plasma; type: ADME, cell-free; settings: read-out: PPB (converted)
PXR = PXR (Homo sapiens, UniProt O75469); assay: Activation of PXR (unknown origin) stably expressed in human HepG2 cells at 10 uM relative to rifampicin; type: ADME, cell-based; settings: HepG2 cells stably expressing PXR, read-out: Activity
PXR, sequence (O75469 whole entry): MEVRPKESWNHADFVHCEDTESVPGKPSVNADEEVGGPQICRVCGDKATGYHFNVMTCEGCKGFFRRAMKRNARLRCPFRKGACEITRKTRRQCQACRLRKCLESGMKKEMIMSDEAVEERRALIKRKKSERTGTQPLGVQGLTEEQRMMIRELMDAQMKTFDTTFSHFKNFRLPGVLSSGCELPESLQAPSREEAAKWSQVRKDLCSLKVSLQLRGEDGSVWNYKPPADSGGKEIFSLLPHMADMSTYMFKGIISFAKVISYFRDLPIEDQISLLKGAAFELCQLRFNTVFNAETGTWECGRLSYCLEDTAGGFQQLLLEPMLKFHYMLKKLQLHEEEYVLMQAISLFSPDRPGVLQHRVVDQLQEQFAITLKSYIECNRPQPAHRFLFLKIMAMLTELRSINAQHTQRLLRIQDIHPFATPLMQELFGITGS

[37] = Apparent permeability of the compound across basolateral side to apical side in human Caco2 cells; type: ADME, cell-based; settings: Caco-2
CYP3A4 = CYP3A4 (Homo sapiens, UniProt P08684); assay: Inhibition of CYP3A4 (unknown origin) at 10 uM relative to control; type: ADME
CYP3A4, sequence (P08684 whole entry): as the sequence (P08684 whole entry) above

Cytochrome P450 3A4 [38] = target: T2, Cytochrome P450 3A4; assay: Time dependent inhibition of CYP3A4 (unknown origin) at <5 uM pre-incubated for 30 mins followed by midazolam substrate addition in absence of NADPH; type: ADME
CYP2C9 = CYP2C9 (Homo sapiens, UniProt P11712); assay: Inhibition of CYP2C9 (unknown origin) at 10 uM relative to control; type: ADME
CYP2C9, sequence (P11712 whole entry): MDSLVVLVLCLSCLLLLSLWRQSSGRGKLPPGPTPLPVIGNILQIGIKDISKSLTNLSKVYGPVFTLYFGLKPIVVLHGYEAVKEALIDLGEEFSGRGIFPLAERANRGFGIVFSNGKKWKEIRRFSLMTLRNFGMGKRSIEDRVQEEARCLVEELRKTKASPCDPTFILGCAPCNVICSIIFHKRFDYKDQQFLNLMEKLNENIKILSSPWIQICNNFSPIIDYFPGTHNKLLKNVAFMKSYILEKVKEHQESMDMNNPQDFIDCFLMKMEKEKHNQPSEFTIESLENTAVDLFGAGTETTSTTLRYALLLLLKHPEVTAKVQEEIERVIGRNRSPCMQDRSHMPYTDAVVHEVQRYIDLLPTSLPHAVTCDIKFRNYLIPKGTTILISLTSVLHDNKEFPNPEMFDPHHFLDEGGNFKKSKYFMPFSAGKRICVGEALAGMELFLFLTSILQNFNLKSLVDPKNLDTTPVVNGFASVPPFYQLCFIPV

Cytochrome P450 3A4 [39] = target: T2, Cytochrome P450 3A4; assay: Time dependent inhibition of CYP3A4 (unknown origin) at <5 uM pre-incubated for 30 mins followed by testosterone substrate addition in presence of NADPH; type: ADME
[40] = Apparent permeability from basolateral side to apical side in MDCK cells; type: ADME, cell-based, Canis lupus familiaris; settings: dog
[41] = Octanol/aqueous buffer partition coefficient, log D of the compound at pH 7.4; type: physicochemical

- solubility kinetic [1]: 10.5 µM (≈ 3.74 µg/mL)
- fAUC [2]: 0.459 µM·h
- fraction unbound [3]: 0.019
- IC50 [4]: 120 nM
- inhibition at 2 h, 10 µM [5]: > 50%
- IC50 [6]: 233 nM
- Papp [7]: 18 ×10⁻⁶ cm/s
- TDI (Cytochrome P450 3A4 [8]): Not Active
- half-life [9]: 5.2 h
- CLint scaled [10]: 13.7 mL/min/kg
- fraction unbound [11]: 0.0369
- IC50 [12]: 130 nM
- Cmax [13]: 5.9 µM
- fraction unbound [14]: 0.019
- half-life [15]: 4.32 h
- fAUC [16]: 0.123 µM·h
- AUC(0-inf) [17]: 22.6 µM·h
- IC50 [18]: 1490 nM
- TDI (Cytochrome P450 3A4 [19]): Not Active
- IC50 [20]: 60 nM
- Cmax [21]: 3.8 µM
- inhibition at 10 µM (CYP1A2): 35.4%
- efflux ratio [22]: 0.63
- IC50 [23]: 76600 nM
- fraction unbound [24]: 0.0193
- Drug uptake(free) [25]: Dose-dependent effect
- Papp A→B [26]: 8.66 ×10⁻⁶ cm/s
- Ratio [27]: 1.89
- remaining at 0.5 h [28]: 100 to 108%
- half-life [29]: 10 h
- clearance [30]: 8.6 mL/min/kg
- clearance [31]: 3.3 mL/min/kg
- Papp A→B (MDR1 (P-gp)): 8.35 ×10⁻⁶ cm/s
- fAUC [32]: 2.06 µM·h
- remaining at 0.5 h [33]: 100 to 106%
- inhibition at 1 h, 1 µM [34]: > 50%
- IC50 [35]: 130 nM
- fraction unbound [36]: 0.0203
- activity at 10 µM (PXR): 15%
- Papp B→A [37]: 8.64 ×10⁻⁶ cm/s
- Ratio IC50 (Homo sapiens): 200
- inhibition at 10 µM (CYP3A4): 15.4%
- TDI (Cytochrome P450 3A4 [38]): Not Active
- inhibition at 10 µM (CYP2C9): 13.6%
- TDI (Cytochrome P450 3A4 [39]): Not Active
- Papp B→A [40]: 7.97 ×10⁻⁶ cm/s
- logD [41]: 2.68
SMILES: COc1nc(N[C@@H](C)c2cc3cc(Cl)ccc3[nH]c2=O)ncc1C#N
- inhibition in vivo at 12.5 mg/kg (Mus musculus): > 90%

— ChEMBL document CHEMBL4359816, “Discovery and Optimization of Quinolinone Derivatives as Potent, Selective, and Orally Bioavailable Mutant Isocitrate Dehydrogenase 1 (mIDH1) Inhibitors” (J Med Chem, 2019)
